Laboratory results: ChEMBL document CHEMBL2086254, “Synthesis and identification of novel indolo[2,3-a]pyrimido[5,4-c]carbazoles as a new class of anti-cancer agents” (Eur J Med Chem, 2012)

Columns and labels:
Format in all cases: functional
[1] = system: A498; test: Cytotoxicity against human A498 cells assessed as cell growth at 10 uM after 48 hrs by SRB assay relative to control; settings: A498, 48 h, read-out: Activity
[2] = system: TK-10; test: Cytotoxicity against human TK10 cells assessed as cell growth at 10 uM after 48 hrs by SRB assay relative to control; settings: TK-10, 48 h, read-out: Activity
[3] = system: PC-3; test: Cytotoxicity against human PC3 cells assessed as cell growth at 10 uM after 48 hrs by SRB assay relative to control; settings: PC-3, 48 h, read-out: Activity
[4] = system: DU-145; test: Cytotoxicity against human DU145 cells assessed as cell growth at 10 uM after 48 hrs by SRB assay relative to control; settings: DU-145, 48 h, read-out: Activity
[5] = Cytotoxicity against human Hs 578T cells assessed as cell growth at 10 uM after 48 hrs by SRB assay relative to control; settings: read-out: Activity
[6] = system: T47D; test: Cytotoxicity against human T47D cells assessed as cell growth at 10 uM after 48 hrs by SRB assay relative to control; settings: read-out: Activity
[7] = system: MDA-MB-468; test: Cytotoxicity against human MDA-MB-468 cells assessed as cell growth at 10 uM after 48 hrs by SRB assay relative to control; settings: MDA-MB-468, 48 h, read-out: Activity
[8] = system: EKVX; test: Cytotoxicity against human EKVX cells assessed as cell growth at 10 uM after 48 hrs by SRB assay relative to control; settings: read-out: Activity
[9] = system: U-251; test: Cytotoxicity against human U251 cells assessed as cell growth at 10 uM after 48 hrs by SRB assay relative to control; settings: U-251, 48 h, read-out: Activity
[10] = system: MDA-MB-435; test: Cytotoxicity against human MDA-MB-435 cells assessed cell growth at 10 uM after 48 hrs by SRB assay relative to control
[11] = system: IGROV-1; test: Cytotoxicity against human IGROV1 cells assessed as cell growth at 10 uM after 48 hrs by SRB assay relative to control; settings: IGROV-1, 48 h, read-out: Activity
[12] = system: CAKI-1; test: Cytotoxicity against human Caki1 cells assessed as cell growth at 10 uM after 48 hrs by SRB assay relative to control; settings: CAKI-1, 48 h, read-out: Activity
[13] = system: UO-31; test: Cytotoxicity against human UO31 cells assessed as cell growth at 10 uM after 48 hrs by SRB assay relative to control; settings: UO-31, 48 h, read-out: Activity
[14] = system: HCT-116; test: Cytotoxicity against human HCT116 cells assessed as cell growth at 10 uM after 48 hrs by SRB assay relative to control; settings: HCT-116, 48 h, read-out: Activity
[15] = system: KM12; test: Cytotoxicity against human KM12 cells assessed as cell growth at 10 uM after 48 hrs by SRB assay relative to control; settings: KM12, 48 h, read-out: Activity
[16] = system: SW-620; test: Cytotoxicity against human SW620 cells assessed as cell growth at 10 uM after 48 hrs by SRB assay relative to control; settings: SW-620, 48 h, read-out: Activity
[17] = system: M14; test: Cytotoxicity against human M14 cells assessed as cell growth at 10 uM after 48 hrs by SRB assay relative to control; settings: M14, 48 h, read-out: Activity
[18] = system: SK-MEL-2; test: Cytotoxicity against human SK-MEL-2 cells assessed as cell growth at 10 uM after 48 hrs by SRB assay relative to control; settings: SK-MEL-2, 48 h, read-out: Activity
[19] = system: SK-OV-3; test: Cytotoxicity against human SKOV3 cells assessed as cell growth at 10 uM after 48 hrs by SRB assay relative to control; settings: SK-OV-3, 48 h, read-out: Activity
[20] = system: ACHN; test: Cytotoxicity against human ACHN cells assessed as cell growth at 10 uM after 48 hrs by SRB assay relative to control; settings: read-out: Activity
[21] = system: A549; test: Cytotoxicity against human A549 cells assessed as cell growth at 10 uM after 48 hrs by SRB assay relative to control; settings: A549, 48 h, read-out: Activity
[22] = system: K562; test: Cytotoxicity against human K562 cells assessed as cell growth at 10 uM after 48 hrs by SRB assay relative to control; settings: K562, 48 h, read-out: Activity
[23] = system: RPMI-8226; test: Cytotoxicity against human RPMI8226 cells assessed as cell growth at 10 uM after 48 hrs by SRB assay relative to control; settings: RPMI-8226, 48 h, read-out: Activity
[24] = system: NCI-H226; test: Cytotoxicity against human NCI-H226 cells assessed as cell growth at 10 uM after 48 hrs by SRB assay relative to control; settings: NCI-H226, 48 h, read-out: Activity
[25] = system: NCI-H460; test: Cytotoxicity against human NCI-H460 cells assessed as cell growth at 10 uM after 48 hrs by SRB assay relative to control; settings: NCI-H460, 48 h, read-out: Activity
[26] = system: HCT-15; test: Cytotoxicity against human HCT15 cells assessed as cell growth at 10 uM after 48 hrs by SRB assay relative to control; settings: HCT-15, 48 h, read-out: Activity
[27] = system: SF-268; test: Cytotoxicity against human SF268 cells assessed as cell growth at 10 uM after 48 hrs by SRB assay relative to control; settings: SF-268, 48 h, read-out: Activity
[28] = system: SF-539; test: Cytotoxicity against human SF539 cells assessed as cell growth at 10 uM after 48 hrs by SRB assay relative to control; settings: SF-539, 48 h, read-out: Activity
[29] = system: SNB-19; test: Cytotoxicity against human SNB19 cells assessed as cell growth at 10 uM after 48 hrs by SRB assay relative to control; settings: SNB-19, 48 h, read-out: Activity
[30] = system: LOX IMVI; test: Cytotoxicity against human LOXIMVI cells assessed as cell growth at 10 uM after 48 hrs by SRB assay relative to control; settings: read-out: Activity
[31] = system: SK-MEL-28; test: Cytotoxicity against human SK-MEL-28 cells assessed as cell growth at 10 uM after 48 hrs by SRB assay relative to control; settings: SK-MEL-28, 48 h, read-out: Activity
[32] = system: SK-MEL-5; test: Cytotoxicity against human SK-MEL-5 cells assessed as cell growth at 10 uM after 48 hrs by SRB assay relative to control; settings: SK-MEL-5, 48 h, read-out: Activity
[33] = system: UACC-62; test: Cytotoxicity against human UACC62 cells assessed as cell growth at 10 uM after 48 hrs by SRB assay relative to control; settings: UACC-62, 48 h, read-out: Activity
[34] = system: OVCAR-8; test: Cytotoxicity against human OVCAR8 cells assessed as cell growth at 10 uM after 48 hrs by SRB assay relative to control; settings: OVCAR-8, 48 h, read-out: Activity
[35] = system: NCI/ADR-RES; test: Cytotoxicity against human NCI/ADR-RES cells assessed as cell growth at 10 uM after 48 hrs by SRB assay relative to control; settings: read-out: Activity

## Cn1cc(-c2[nH]c(=O)[nH]c(=O)c2-c2cn(C)c3ccccc23)c2ccccc21
[1]
  growth at 10 µM: 112%
[2]
  growth at 10 µM: 94.5%
[3]
  growth at 10 µM: 86.1%
[4]
  growth at 10 µM: 115%
[5]
  growth at 10 µM: 105%
[6]
  growth at 10 µM: 82.4%
[7]
  growth at 10 µM: 88.5%
[8]
  growth at 10 µM: 68.7%
[9]
  growth at 10 µM: 113%
[10]
  Activity: 73.39%
[11]
  growth at 10 µM: 62.2%
[12]
  growth at 10 µM: 68.6%
[13]
  growth at 10 µM: 75.8%
[14]
  growth at 10 µM: 91.7%
[15]
  growth at 10 µM: 93.3%
[16]
  growth at 10 µM: 88.8%
[17]
  growth at 10 µM: 89.8%
[18]
  growth at 10 µM: 118%
[19]
  growth at 10 µM: 96.8%
[20]
  growth at 10 µM: 92.5%
[21]
  growth at 10 µM: 96.9%
[22]
  growth at 10 µM: 93.8%
[23]
  growth at 10 µM: 98.9%
[24]
  growth at 10 µM: 86.2%
[25]
  growth at 10 µM: 88.2%
[26]
  growth at 10 µM: 95%
[27]
  growth at 10 µM: 106%
[28]
  growth at 10 µM: 111%
[29]
  growth at 10 µM: 109%
[30]
  growth at 10 µM: 104%
[31]
  growth at 10 µM: 103%
[32]
  growth at 10 µM: 101%
[33]
  growth at 10 µM: 88.3%
[34]
  growth at 10 µM: 98.1%
[35]
  growth at 10 µM: 103%

## Cn1c2ccccc2c2c3nc(N)[nH]c(=O)c3c3c4ccccc4n(C)c3c21
[1]
  growth at 10 µM: 114%
[2]
  growth at 10 µM: 50.1%
[3]
  growth at 10 µM: 59.1%
[4]
  growth at 10 µM: 44.9%
[5]
  growth at 10 µM: 113%
[6]
  growth at 10 µM: 75%
[7]
  growth at 10 µM: 80.3%
[8]
  growth at 10 µM: 73.5%
[9]
  growth at 10 µM: 76.1%
[10]
  Activity: 24.36%
[11]
  growth at 10 µM: 65.8%
[12]
  growth at 10 µM: -14.9%
[13]
  growth at 10 µM: 7.16%
[14]
  growth at 10 µM: 34%
[15]
  growth at 10 µM: 19.9%
[16]
  growth at 10 µM: 31.6%
[17]
  growth at 10 µM: 34.9%
[18]
  growth at 10 µM: 32%
[19]
  growth at 10 µM: 34.9%
[20]
  growth at 10 µM: 29.5%
[21]
  growth at 10 µM: 58.5%
[22]
  growth at 10 µM: 44.4%
[23]
  growth at 10 µM: 61.4%
[24]
  growth at 10 µM: 78.1%
[25]
  growth at 10 µM: 40.6%
[26]
  growth at 10 µM: 43.7%
[27]
  growth at 10 µM: 73.5%
[28]
  growth at 10 µM: 99.1%
[29]
  growth at 10 µM: 122%
[30]
  growth at 10 µM: 60.9%
[31]
  growth at 10 µM: 91%
[32]
  growth at 10 µM: 48.8%
[33]
  growth at 10 µM: 81.3%
[34]
  growth at 10 µM: 43.1%
[35]
  growth at 10 µM: 48.7%

## Cn1cc(-c2[nH]c(=S)[nH]c(=O)c2-c2cn(C)c3ccccc23)c2ccccc21
[1]
  growth at 10 µM: 102%
[2]
  growth at 10 µM: 96.3%
[3]
  growth at 10 µM: 92.1%
[4]
  growth at 10 µM: 110%
[5]
  growth at 10 µM: 103%
[6]
  growth at 10 µM: 98.3%
[7]
  growth at 10 µM: 107%
[8]
  growth at 10 µM: 75%
[9]
  growth at 10 µM: 89%
[10]
  Activity: 77.23%
[11]
  growth at 10 µM: 75.7%
[12]
  growth at 10 µM: 82.4%
[13]
  growth at 10 µM: 75.8%
[14]
  growth at 10 µM: 98.8%
[15]
  growth at 10 µM: 97.9%
[16]
  growth at 10 µM: 98%
[17]
  growth at 10 µM: 106%
[18]
  growth at 10 µM: 111%
[19]
  growth at 10 µM: 100%
[20]
  growth at 10 µM: 95.5%
[21]
  growth at 10 µM: 103%
[22]
  growth at 10 µM: 87%
[23]
  growth at 10 µM: 91%
[24]
  growth at 10 µM: 87.1%
[25]
  growth at 10 µM: 93%
[26]
  growth at 10 µM: 95.2%
[27]
  growth at 10 µM: 106%
[28]
  growth at 10 µM: 99.1%
[29]
  growth at 10 µM: 105%
[30]
  growth at 10 µM: 92.2%
[31]
  growth at 10 µM: 104%
[32]
  growth at 10 µM: 96.2%
[33]
  growth at 10 µM: 93.4%
[34]
  growth at 10 µM: 102%
[35]
  growth at 10 µM: 101%

## Cn1cc(-c2c(-c3cn(C)c4ncccc34)nc(N)[nH]c2=O)c2ccccc21
[1]
  growth at 10 µM: 85.7%
[2]
  growth at 10 µM: 113%
[3]
  growth at 10 µM: 84.2%
[4]
  growth at 10 µM: 107%
[5]
  growth at 10 µM: 101%
[6]
  growth at 10 µM: 83%
[7]
  growth at 10 µM: 116%
[8]
  growth at 10 µM: 96.3%
[9]
  growth at 10 µM: 77.5%
[10]
  Activity: 98.77%
[11]
  growth at 10 µM: 87.1%
[12]
  growth at 10 µM: 90%
[13]
  growth at 10 µM: 79%
[14]
  growth at 10 µM: 98%
[15]
  growth at 10 µM: 102%
[16]
  growth at 10 µM: 97.5%
[17]
  growth at 10 µM: 103%
[18]
  growth at 10 µM: 105%
[19]
  growth at 10 µM: 98.3%
[20]
  growth at 10 µM: 87.6%
[21]
  growth at 10 µM: 102%
[22]
  growth at 10 µM: 95%
[23]
  growth at 10 µM: 85.1%
[24]
  growth at 10 µM: 84.2%
[25]
  growth at 10 µM: 98.4%
[26]
  growth at 10 µM: 103%
[27]
  growth at 10 µM: 101%
[28]
  growth at 10 µM: 104%
[29]
  growth at 10 µM: 111%
[30]
  growth at 10 µM: 99.9%
[31]
  growth at 10 µM: 11%
[32]
  growth at 10 µM: 96.5%
[33]
  growth at 10 µM: 97%
[34]
  growth at 10 µM: 95.8%
[35]
  growth at 10 µM: 101%
